Assay: refractive index (Na D-line) (dimensionless); xn = mol fraction of the nth substance listed
Conditions: 100 kPa, Liquid, Standard Abbe refractometry

c1ccncc1 [pyridine] + CCC(C)=O
refractive index
Conditions	288.15 K	293.15 K	298.15 K	303.15 K	308.15 K	313.15 K	318.15 K	323.15 K	328.15 K	333.15 K
x1 = 0.1006	1.39357	1.39094	1.3883	1.38577	1.38311	1.38031	1.37775	1.37505	1.37234	1.36942
x1 = 0.2019	1.40586	1.40321	1.40056	1.39791	1.39527	1.3926	1.38992	1.38721	1.38453	1.38158
x1 = 0.3002	1.41813	1.41548	1.41282	1.41015	1.40751	1.40483	1.40214	1.39946	1.39666	1.39394
x1 = 0.4004	1.43104	1.42836	1.42568	1.42298	1.4203	1.4176	1.41489	1.41218	1.40942	1.40669
x1 = 0.4999	1.44407	1.44138	1.43868	1.43597	1.43325	1.43052	1.42779	1.42502	1.42228	1.41944
x1 = 0.597	1.45674	1.45401	1.4513	1.44857	1.44585	1.44311	1.44039	1.43765	1.43488	1.43213
x1 = 0.6998	1.4705	1.46776	1.46502	1.46227	1.45952	1.45678	1.45404	1.4513	1.44853	1.44586
x1 = 0.7945	1.48331	1.48055	1.47779	1.47504	1.47226	1.4695	1.46675	1.46402	1.46124	1.45866
x1 = 0.8962	1.49734	1.49455	1.49176	1.48899	1.4862	1.48343	1.48066	1.47793	1.47513	1.4726
x1 = 1	1.51204	1.50923	1.50636	1.50355	1.50076	1.49796	1.49522	1.49245	1.48962	1.48708

Reference: the NIST ThermoML archive (doi:10.1016/j.fluid.2016.02.031)
